Test results: patent US10328051B2, “Proline or proline derivatives for the treatment of dementia” (priority 2014, dated 2019)

Legend:
Format in all cases: in vivo, human
Collagen IV = assay: Measurement of Collagen-IV following multiple dose administration of CHP (Study 0202-71); details: healthy volunteers, multiple oral doses of CHP for 14 days; P-value 0.0016 (t-test), 0.0047 (Wilcoxon-test)
Excerpt: Example 7—Study Title: Measurement of Collagen-IV Following Multiple Dose Administration of CHP-Study 0202-71—(FIG. 8)
Using a one-sample two-sided t-test, a P-value of 0.0016 was obtained, indicating a 99.8% that the decreased observed was not the result of chance. Using a one-sample two-sided Wilcoxon-test, a P-value of 0.0047 was obtained, indicating a 99.5% that the decreased observed was not the result of chance.

[1] = Pre-dose endogenous plasma concentrations of CHP and THP in healthy volunteers (Study 0202-71), HPLC; details: healthy subjects
Description: Example 8—Study Title: Determination of Pre-Dose Endogenous Concentrations of CHP in Healthy Volunteers (Study 0202 71) (FIG. 11)
According to the examples in this invention, the following ICH-GCP Clinical Phase I study has been performed in healthy subjects for the assessment of the pharmacokinetic profiles of CHP and THP and the determination of the pre-dose endogenous CHP blood plasma concentrations, which were measured for all healthy volunteers directly before CHP administration using a validated, sensitive and selective HPLC bioanalytical method.
Example 9—Study Title: Determination of Pre-Dose Endogenous Concentrations of THP in Healthy Volunteers (Study 0202 71)—(FIG. 11)
According to the examples in this invention, the following ICH-GCP Clinical Phase I study has been performed in healthy volunteers for the assessment of the pharmacokinetic profiles of THP and to determine the pre-dose endogenous THP plasma concentrations, which were measured for all healthy volunteers directly before CHP administration using a validated, sensitive and selective HPLC bioanalytical method. This was performed before both CHP administrations (i.e. for 2.0 g and 3.0 g). • The mean endogenous THP concentration in healthy subjects, calculated across all dose groups, was 0.97±1.15 μg CHP/ml of plasma.

[2] = tested on: patients with mild or moderate Alzheimer's disease and Dementia; assay: Physical and cognitive conditions and Quality of Life questionnaire in patients with mild and moderate Alzheimer's disease (Example 13)
Excerpt: Example 13—Physical, and Cognitive Conditions—Alzheimer—Dementia Measure and Quality of Life (QoL) (FIGS. 13.1, 13.2, 13.3)
According to the ICH-GCP requirements for assessment of the Quality of Life (QoL) the validated questionnaire related to the disease e.g. cancer have been administered in the Phase II clinical studies: IPSS-A04, according to the example 12.1 in this invention.
Additional developed modules to these questionnaire provided greater details on the particular aspects of quality of life for those patients who participated in these clinical studies and diagnosed with mild and moderate Alzheimer's disease based on the presence of neuropsychiatric symptoms.
Diagnosis begun with a thorough physical exam and complete medical history including cerebrovascular disease and supplemental information from family members. Simple tests of mental function, including word recall, object naming, and number symbol marching, were used to track changes in the patient's cognitive ability. Ruling out depression was part of the diagnosis. Eight (8) patients over the age of 65 years met these criteria and have been selected for the assessment of CHP effects on the quality of life according to the items mentioned below including the cognitive status.
The administration of intravenous (iv) and oral CHP as monotherapy has been scheduled according to examples 12.1 in this invention in the patient's group G2—in study IPSS-A04.
The assessment of the QoL, physical, and cognitive conditions—Alzheimer-Dementia has been completed by the patients/care providers in the following intervals (FIGS. 13.1-13.3):
Pre-dose: Prior to the start of treatment with CHP as monotherapy
Start and completion of treatment with CHP: The questionnaire has been completed every 4 weeks after the start of treatment (Week 4, 8, 12, 16, 20, 24) and 4 weeks upon the completion of the treatment with CHP as monotherapy. A scale value is given for each response that reflects a good quality of life. […] A higher score reflects a higher quality of life. The 5 domains of Quality of Life—Alzheimer's Disease-Dementia included are: 1. Enjoyment of activities, 2. Feelings and mood, 3. Awareness of self, 4. Social Interactions, 5. Illness global QoL.
The following modified QLQ-C30 Version 1.0 has been used for the recording and assessment of the patient's conditions prior to and after the treatment with CHP.

[3] = Single ascending oral doses of CHP (Study 1001-68) and single IV dose (Study 0302-72): pharmacokinetics and safety in healthy volunteers
Excerpt: study title Safety, tolerability and pharmacokinetic profile of single ascending doses of oral cis-4-hydroxy-L-proline (CHP) in healthy volunteers Galmed study no. 1001-68-. Results FIGS. 3 and 4.
Study title: Single Dose Absolute Bioavailability (intravenous IV solution) and Safety Study of CHP in Healthy Volunteers-GALMED Study No: 0302-72. Results are in (FIGS. 5 and 6)
Six healthy volunteers (male, caucasian—18-45 years old) were recruited from the GCP-Galmed clinical centre. All healthy volunteers provided written informed consent prior to study participation. The study was approved by the independent Ethical Committee.
All volunteers were orally administered 2, 4, 6, 8, 10 and 12 grams of CHP with a wash out period of at least one week between doses of CHP.
The following blood and urine samples were collected for determination of the pharmacokinetics parameters of CHP and THP:
10 hours and immediately prior to administration of CHP (0 Hour), and at 0.25, 0.5, 1, 1.5, 2, 2.5, 3, 4, 5, 6, 12 and 24 hours after administration of CHP.
Urine was collected for the determination of the CHP and THP concentrations and the calculation of the elimination parameters of CHP and THP.
Six healthy volunteers (male, caucasian—18-45 years old) were recruited from the GCP-Galmed clinical centre. All healthy volunteers provided written informed consent prior to study participation. The study was approved by the independent Ethical Committee. Single doses of CHP were intravenously administered: 2.0 g, 4.0 g (2×2.0 g). Each dose level was administered to all healthy volunteers. There was a washout period of at least one week between doses.
The following safety parameters were determined at the pre- and post-study examinations: • 1. Vital signs • 2. Clinical laboratory: Blood chemistry, Haematology, Coagulation, Urinalysis • 3. Adverse events (Signs and Symptoms) have been recorded in each of the two treatment periods.

[4] = after completion of treatment, 8 patients, pre dose 0
[5] = after completion of treatment, 8 patients, pre dose 3
[6] = after completion of treatment, 8 patients, pre-dose 0
[7] = healthy subjects, after oral administration of CHP 2 g-12 g

SMILES: O=C(O)[C@@H]1C[C@H](O)CN1 [CHP, cis-4-hydroxy-L-proline]
- Collagen IV levels in blood (Collagen IV): inhibits significantly
- Average Cmax, molar equivalent in blood ([1]; Study 0202-71): 462.2±212.1 μM CHP/ml blood
- Average Cmax ([1]; Study 0202-71, after CHP administration): 30.29±13.91 μg CHP/ml plasma
- Overall Physical Condition: number of patients rating 5 [2, 4]: 5
- Overall Physical Condition: number of patients rating 6 [2, 4]: 1
- Overall Physical Condition: number of patients rating 7 [2, 4]: 0
- Overall Quality of Life (QoL): number of patients rating 4 [2, 4]: 3
- Overall Quality of Life (QoL): number of patients rating 5 [2, 4]: 3
- Overall Quality of Life (QoL): number of patients rating 6 [2, 4]: 2
- Overall Quality of Life (QoL): number of patients rating 7 [2, 4]: 0
- Overall Physical Condition: number of patients rating 3 [2, 5]: 1
- Overall Physical Condition: number of patients rating 4 [2, 5]: 1
- Overall Quality of Life (QoL): number of patients rating 3 [2, 5]: 0
- Overall Cognitive Conditions: number of patients rating 5 [2, 6]: 3
- Overall Cognitive Conditions: number of patients rating 6 [2, 6]: 1
- Overall Cognitive Conditions: number of patients rating 7 [2, 6]: 0
- Overall Cognitive Conditions: number of patients rating 4 ([2]; after completion of treatment, 8 patients, pre-dose 1): 3
- Overall Cognitive Conditions: number of patients rating 3 ([2]; after completion of treatment, 8 patients, pre-dose 3): 1
- Overall Physical Condition: number of patients rating 2 ([2]; after completion of treatment, scale 1 = Very poor 7 = Excellent, 8 patients, pre dose 2): 0
- Overall Quality of Life (QoL): number of patients rating 2 ([2]; after completion of treatment, scale 1 = Very poor 7 = Excellent, 8 patients, pre dose 5): 0
- Overall Cognitive Conditions: number of patients rating 2 ([2]; after completion of treatment, scale 1 = Very poor 7 = Excellent, 8 patients, pre-dose 4): 0
- Cognitive, physical, emotional conditions and quality of life in comparison to status prior to the start of the treatment ([2]; oral and/or intravenous CHP monotherapy, 90-540 consecutive days, 2-12 gram per day, mild or moderate Alzheimer's disease and dementia): significant improvement
- Adverse events ([2]; patients with mild or moderate Alzheimer's disease): Only mild adverse events
- Vital parameters, clinical chemistry, haematological and urinalysis findings ([3]; CHP administered orally and intravenously to healthy volunteers (Examples 3 and 4)): all within the normal range
- Oral clearance (average) [3, 7]: 199.72 mL/min
- Volume of distribution (average) [3, 7]: 63.94 L
- Correlation of Cmax and AUC(0-∞) with dose ([3]; healthy subjects, oral CHP doses 2 g-12 g): dose linearity
- Metabolism by the liver microsomal enzyme system ([3]; human, in vivo): isomerisation, hydroxylation and demethylation
- half-life ([3]; male, human, in vivo, healthy subjects, after oral administration of CHP 2 g-12 g, read-out: Elimination half life (average) (converted)): 3.7 h
- MRT ([3]; male, human, in vivo, healthy subjects, after oral administration of CHP 2 g-12 g, read-out: Mean residence time (MRT) (average)): 4.15 h
- Tmax ([3]; male, human, healthy subjects, plasma, after oral administration of CHP 2 g-12 g): 1.24 h
